# Assay results published in patent EP0167553B1, “NEW THERAPEUTICAL APPLICATION OF AN INDANE DIONE DERIVATIVE AND PHARMACEUTICAL COMPOSITIONS INTENDED TO SAID UTILIZATION” (priority 1983, dated 1985).
# Key:
# Assay type in all cases: in vivo
# [1] = Chronic administration, maximum tolerated dose in the rat; conditions: rat, in vivo, administration chronique, read-out: dose maximale tolérée
# Description: (§1) • - Le comportement et l'[…] pondérale des animaux sont étudiés par l'observation quotidienne et les pesées hebdomadaires. L'étude de l'évolution pondérale ne montre pas de différence significative entre les différents lots. C'est un indice de bonne tolérance du traitement. • - La moralité est notée dans chaque lot; elle peut atteindre 30 % des animaux ce qui nécessite des lots de 15 animaux. L'administration chronique de 100 mg/kg de Clofibrate correspond à la dose maximale tolérée par le Rat sain selon nos expériences personnelles.
# [2] = tested on: Rat sain; assay: as above; conditions: administration chronique
# Description: as §1
# [3] = tested on: Rat Wistar; assay: Hyperlipidaemia induced by Triton WR 1339 injection; design: Triglycérides, score par rapport au Procétofène 250 mg/kg: scale not given here
# Excerpt: L'hyperlipidémie par injection de Triton WR 1339 (marque de fabrique), réalisée chez le Rat Wistar, est antagonisée ou diminuée par l'administration d'agents hypolipémiants.
# • - Rats Wistar mâles. • - Poids corporel: 150 -180 grammes. • - Animaux E.O.P.S. (Exempts d'Organisme Pathogène Spécifique). • - Alimentation UAR A04 • - Eau de boisson à volonté • - 6 animaux par lot de traitement et par cage MAKROLON SAFI (marque de fabrique) 60 X 40 cm, sur litière de copeaux de bois dépoussiérés • - Cages placées dans un module animalerie climatisé (19 à 21°C) à degré hygrométrique constant (40 à 60 p.100), dans lequel l'air est renouvelé 10 fois par heure, 12 heures d'éclairement par jour.
# • . - 18 h: mise à jeun. • . Temps 0 - administration du Triton WR 1339® (400 mg/kg IP.). • . + 10 mn: administration du produit étudié. • - + 6 h: 1er prélèvement sanguin au sinus rétro-orbitaire. • . + 24 h: 2ème prélèvement sanguin au sinus rétro-orbitaire.
# L'essai comporte 8 lots dont un lot témoin (animaux sains) et un lot témoin triton (Tableau I).
# [4] = Earlier anti-inflammatory test; conditions: dose de 250 mg/kg
# [5] = 125 mg/kg, 6 heures after Triton
# [6] = 125 mg/kg, 24 heures after Triton
# [7] = 250 mg/kg, 6 heures after Triton
# [8] = 250 mg/kg, 24 heures after Triton
# [9] = 500 mg/kg, 6 heures after Triton
# [10] = 500 mg/kg, 24 heures after Triton
# [11] = 750 mg/kg, 6 heures after Triton
# [12] = 750 mg/kg, 24 heures after Triton
smiles,measurement,setting,value
CCOC(=O)C(C)(C)Oc1ccc(Cl)cc1 [Clofibrate],MTD,[1],~100 mg/kg
same,dose maximale tolérée,[2],100 mg/kg
"COc1ccc(C(=O)CC2(O)C(=O)c3ccccc3C2=O)cc1OC [Produit de l'invention, 2-[(3,4-dimethoxybenzoyl)methyl] 2-hydroxy 1,3-dioxo indane]","Chol. Total, score par rapport au Procétofène 250 mg/kg",[3]; [5],2.44
same,Score Total par rapport au Procétofène 250 mg/kg,[3]; [5],2.75
same,"Triglycérides, score par rapport au Procétofène 250 mg/kg",[3]; [5],0.31
same,"Chol. HDL/ LDL, score par rapport au Procétofène 250 mg/kg",[3]; [6],1.40
same,"Chol. Total, score par rapport au Procétofène 250 mg/kg",[3]; [6],0.28
same,Score Total par rapport au Procétofène 250 mg/kg,[3]; [6],1.94
same,"Triglycérides, score par rapport au Procétofène 250 mg/kg",[3]; [6],0.26
same,"Chol. HDL/ LDL, score par rapport au Procétofène 250 mg/kg",[3]; [7],0.87
same,"Chol. Total, score par rapport au Procétofène 250 mg/kg",[3]; [7],1.15
same,"Lipides Totaux, score par rapport au Procétofène 250 mg/kg",[3]; [7],0.92
same,Score Total par rapport au Procétofène 250 mg/kg,[3]; [7],3.74
same,"Triglycérides, score par rapport au Procétofène 250 mg/kg",[3]; [7],0.80
same,"Chol. HDL/ LDL, score par rapport au Procétofène 250 mg/kg",[3]; [8],1.10
same,"Chol. Total, score par rapport au Procétofène 250 mg/kg",[3]; [8],1.13
same,"Lipides Total, score par rapport au Procétofène 250 mg/kg",[3]; [8],1.56
same,Score Total par rapport au Procétofène 250 mg/kg,[3]; [8],4.64
same,"Triglycérides, score par rapport au Procétofène 250 mg/kg",[3]; [8],0.85
same,"Chol. HDL/ LDL, score par rapport au Procétofène 250 mg/kg",[3]; [9],2.00
same,"Chol. Total, score par rapport au Procétofène 250 mg/kg",[3]; [9],0.35
same,"Lipides Totaux, score par rapport au Procétofène 250 mg/kg",[3]; [9],1.00
same,Score Total par rapport au Procétofène 250 mg/kg,[3]; [9],4.95
same,"Triglycérides, score par rapport au Procétofène 250 mg/kg",[3]; [9],1.60
same,"Chol. HDL/ LDL, score par rapport au Procétofène 250 mg/kg",[3]; [10],0.80
same,"Chol. Total, score par rapport au Procétofène 250 mg/kg",[3]; [10],0.75
same,"Lipides Total, score par rapport au Procétofène 250 mg/kg",[3]; [10],1.62
same,Score Total par rapport au Procétofène 250 mg/kg,[3]; [10],3.66
same,"Triglycérides, score par rapport au Procétofène 250 mg/kg",[3]; [10],0.49
same,"Chol. Total, score par rapport au Procétofène 250 mg/kg",[3]; [11],0.78
same,"Lipides Totaux, score par rapport au Procétofène 250 mg/kg",[3]; [11],0.14
same,Score Total par rapport au Procétofène 250 mg/kg,[3]; [11],1.72
same,"Triglycérides, score par rapport au Procétofène 250 mg/kg",[3]; [11],0.80
same,"Chol. HDL/ LDL, score par rapport au Procétofène 250 mg/kg",[3]; [12],0.40
same,"Chol. Total, score par rapport au Procétofène 250 mg/kg",[3]; [12],0.61
same,Score Total par rapport au Procétofène 250 mg/kg,[3]; [12],1.73
same,"Triglycérides, score par rapport au Procétofène 250 mg/kg",[3]; [12],0.72
same,hyperlipémie provoquée par le Triton WR 1339,"[3]; dès la dose de 125 mg/kg par voie orale, Rat",antagonisée au diminuée
same,effet anti-inflammatoire,[4],effet liminaire anti-inflammatoire
